Laboratory results as given in US9149469B2, “Pharmaceutical composition and a process thereof” (INDUS Biotech PVT. Ltd., priority 2007, dated 2015).

Key:
[1] = tested on: oxotremorine induced tremors; assay: Oxotremorine antagonism (tremor, salivation, lacrimation scores); assay type: in vivo, NMRI mice
Method: Oxotremorine is a cholinergic drug which is a muscarine agonist and induces parkinsonism-like signs such as tremors, ataxia, spasticity, salivation, lacrimation and hypothermia. Oxotremorine is a cholinergic drug, which induces excessive tremors in mice. If a drug is having anti-cholinergic property like atropine the tremors will be decreased.
Procedure: Groups of 6-10 male NMRI mice weighing 18-22 g are used. They are dosed orally with the test compound or the standard (5 mg/kg benezatropine mesilate) 1 hour prior to the administration of 0.5 mg/kg oxotremorine. Tremor is scored after oxotremorine dosage in periods of 5 min for 1 hour.
After the administration of 0.5 mg/kg of Oxotremorine, the tremors started within 15 mins and were sustained for 30 mins.

[2] = tested on: 6-OHDA unilateral lesion of the dopaminergic nigrostriatal pathway; assay: 6-Hydroxydopamine model (rotation); assay type: in vivo, Male Wistar mice
Method: 6-Hydroxydopamine (6-OHDA) is a neurotoxin which causes a unilateral lesion of the dopaminergic nigrostriatal pathway that induces hypersensitivity of the post synaptic dopaminergic receptor in the striatum of the lesioned side. An indirect acting compound like amphetamine is administered the mice rotate toward the lesioned side (ipsilateral) as opposed to when a direct acting dopaminergic drug is administered which causes then to rotate contra laterally. Therefore, this test can be used for the study of central dopamine function and the evaluation of dopamine antagonists and agonists, particularly the activity of novel anti-parkinsonian drugs. This test clearly distinguishes drugs with predominantly dopamine receptor agonist activity from those with predominantly dopamine releasing activity of the drug.
Procedure: Male Wistar […] weighing 200-250 grams at the time of surgery are used. They are housed individually in a controlled environment with free access to food and water. The animals are anaesthetized with sodium pentobarbital. The head is placed in a stereotaxic device (DKI 900) and positioned according to the atlas of Konig and Klippel. After a sagittal cut is made in the skin of the skull, a 2 mm wide hole is drilled with an electrical trepan drill. Care is taken not to lesion the meninges. A 30 gauge stainless-steel cannula connected to a Hamilton syringe is aimed at the anterior zona compacta of the substantia nigra (coordinates anterior 1.88 mm, lateral 2.0 mm and dorso-ventral—8.2 mm from instrument zero). A total of 8 μg of […] in 4 γ/L of saline is injected at a rate of 1 γ/L/min. After the intra-cranial injection, the wound is closed.
The animal is allowed several weeks for recovery and for development of the lesion. Specially constructed opaque plastic spheres attached to solid state programming equipment serve as test chambers. The number of full turns, either ipsilateral or contra lateral to the lesion, are recorded on an automatic printout counter every 15 min for one or two hours test sessions. To determine the control values for ipsilateral turning, each subject is administered 2.5 mg/kg of d amphetamine and immediately placed in the circling chamber for 2 hours Control values for contra lateral circling are determined by injecting apomorphine at 1 mg/kg s.c. and recording the rat's circling for 1 hour. Test compounds are given i.p or sc. And the animals placed into the circling chambers. Circling is recorded over a 1 hour period. This experiment is conducted in 30 animals and the average is represented in the table

[3] = tested on: Haloperidol induced catalepsy; assay: Haloperidol induced catalepsy in mice (bar test); assay type: in vivo, Swiss Albino mice
Text: Haloperidol is neuroleptic agent that blocks the Dopamine D2 receptor in the brain. This precipitates the extra-pyramidal side effects which can be measured by the “Bar Test for catalepsy in mice”. Catalepsy in mice is defined as a failure to correct an externally imposed unusual posture over a prolonged period of time. […] Haloperidol induced catalepsy can be reversed if dopaminergic drugs that supply dopamine to the striatum of the brain since it increase competitive antagonism.
Procedure: Swiss Albino mice of either sex weighing 23-28 g are used. Catalepsy was induced by Haloparidol (0.5 mg/kg i.p.) and assessed by bar test up to 3 hrs. Six animals are dosed with the saline, test drug and the standard intraperitonially. The animals are placed in translucent plastic boxes with a wooden dowel mounted horizontally 2.5 cm from the floor of the box. The animals are allowed to adapt to the box for 2 min. Then, each animal is grasped gently around the shoulders and under the forepaws and placed carefully on the dowel. The amount of the time spent with at least one forepaw on the bar is determined. When the animal removes its paws, the time is recorded and the mice are repositioned on the bar. Three trials are conducted for each animal at 30, 60, 120 and 360 min, with 6 animals in each group.

[4] = positive control 5 mg/kg and oxytremorine, n = 6

Compound: CN1[C@@H]2CC[C@H]1C[C@@H](OC(=O)C(CO)c1ccccc1)C2 (stereo partly shown) [Atropine]
- decrease in severity of tremors ([1]; Atropine 1 mg/kg, FIG. 2): significant decrease in severity of tremors
- Lacrimation score at 30 minutes ([1]; Atropine, dose not given): 0.6
- Salivation score at 30 minutes ([1]; Atropine, dose not given): 0.8
- Tremor score 5 minutes [1, 4]: 0.9
- Tremor score 15 minutes [1, 4]: 0.9
- Tremor score 30 minutes [1, 4]: 1.0
- Tremor score 45 minutes [1, 4]: 1.3

Compound: N[C@@H](Cc1ccc(O)c(O)c1)C(=O)O [L-Dopa, Dihydroxy Phenyl Alanine]
- Contra-lateral Rotation ([2]; L-Dopa 10 mg/kg): 45.67
- Ipsilateral Rotation ([2]; L-Dopa 10 mg/kg): 0.83
- reduction of catalepsy ([3]; L-DOPA (10)+Hal (0.5) compared with Hal (0.5) at respective time, FIG. 1): significant at P<0.001
- reducing catalepsy, standard versus test drug ([3]; L-Dopa 10 mg/kg compared with test drug 100 mg/kg): more effective than the test drug at a dosage of 100 mg/kg

Compound: CN1CCc2cccc3c2[C@H]1Cc1ccc(O)c(O)c1-3 [Apomorphine]
- Contra-lateral Rotation ([2]; Apomorphine 0.3 mg/kg): 169.33
- Ipsilateral Rotation ([2]; Apomorphine 0.3 mg/kg): 0.67
